Reference: the NIST ThermoML archive (doi:10.1021/acs.jced.5b00944)

Assay: xn = mol fraction of the nth substance listed
Conditions: for viscosity / speed of sound / mass density: 100 kPa, Liquid; for viscosity: Capillary tube (Ostwald / Ubbelohde) method; for speed of sound: Sing-around technique in a fixed-path interferometer; for mass density: Vibrating tube method; for surface tension liquid-gas: Capillary rise

CCCC[N+]1(C)CCCC1.N#CN=C=[N-] [1-butyl-1-methylpyrrolidinium dicyanamide] + O
Conditions | mass density [kg/m3] | speed of sound [m/s] | surface tension liquid-gas [mN/m] | viscosity [mPa·s]
287.92 K, x2 = 0.0329 | – | – | – | 46.3
287.92 K, x2 = 0.0994 | – | – | – | 44.7
287.94 K, x2 = 0.2615 | – | – | – | 37.1
287.94 K, x2 = 0.4463 | – | – | – | 28.9
287.95 K, x2 = 0.6509 | – | – | – | 19.6
287.95 K, x2 = 0.751 | – | – | – | 14.4
287.97 K, x2 = 0.9 | – | – | – | 5.51
288.15 K, x2 = 0 | 1019.11 | 1834.4 | – | –
288.15 K, x2 = 0.0329 | 1019.02 | 1834.2 | – | –
288.15 K, x2 = 0.0993 | 1018.74 | 1833.5 | – | –
288.15 K, x2 = 0.2615 | 1018.26 | 1832.2 | – | –
288.15 K, x2 = 0.4463 | 1017.61 | 1832.1 | – | –
288.15 K, x2 = 0.6509 | 1016.78 | 1831.3 | – | –
288.15 K, x2 = 0.751 | 1016.44 | 1825 | – | –
288.15 K, x2 = 0.9 | 1012.13 | 1752.9 | – | –
288.3 K, x2 = 0.0329 | – | – | 51.9 | –
288.8 K, x2 = 0.0994 | – | – | 52.4 | –
288.8 K, x2 = 0.751 | – | – | 54.3 | –
288.8 K, x2 = 0.9 | – | – | 54.3 | –
288.9 K, x2 = 0.6509 | – | – | 50.6 | –
289 K, x2 = 0.4463 | – | – | 51.8 | –
289.1 K, x2 = 0.2615 | – | – | 52 | –
297.5 K, x2 = 0.0329 | – | – | 51.4 | –
297.6 K, x2 = 0.9 | – | – | 53.7 | –
297.7 K, x2 = 0.4463 | – | – | 51.5 | –
297.8 K, x2 = 0.0994 | – | – | 52 | –
297.8 K, x2 = 0.751 | – | – | 53.3 | –
297.9 K, x2 = 0.2615 | – | – | 51.6 | –
297.9 K, x2 = 0.6509 | – | – | 50.1 | –
297.93 K, x2 = 0.0329 | – | – | – | 31.9
297.93 K, x2 = 0.4463 | – | – | – | 20
297.94 K, x2 = 0.2615 | – | – | – | 26.1
297.95 K, x2 = 0.0994 | – | – | – | 31.1
297.95 K, x2 = 0.751 | – | – | – | 10
297.96 K, x2 = 0.6509 | – | – | – | 13.4
297.96 K, x2 = 0.9 | – | – | – | 3.93
298.15 K, x2 = 0 | 1013.48 | 1809.6 | – | –
298.15 K, x2 = 0.0329 | 1013.44 | 1809.6 | – | –
298.15 K, x2 = 0.0993 | 1013.07 | 1808.5 | – | –
298.15 K, x2 = 0.2615 | 1012.53 | 1807.6 | – | –
298.15 K, x2 = 0.4463 | 1011.78 | 1808.1 | – | –
298.15 K, x2 = 0.6509 | 1010.69 | 1808.3 | – | –
298.15 K, x2 = 0.751 | 1010.21 | 1803.2 | – | –
298.15 K, x2 = 0.9 | 1006.14 | 1740.1 | – | –
305.2 K, x2 = 0.2615 | – | – | 51 | –
305.5 K, x2 = 0.0994 | – | – | 51.7 | –
305.5 K, x2 = 0.751 | – | – | 52.6 | –
305.6 K, x2 = 0.4463 | – | – | 51 | –
305.6 K, x2 = 0.9 | – | – | 52.9 | –
306 K, x2 = 0.0329 | – | – | 50.8 | –
306 K, x2 = 0.6509 | – | – | 49.8 | –
307.99 K, x2 = 0.4463 | – | – | – | 14.6
308 K, x2 = 0.0329 | – | – | – | 23.1
308.01 K, x2 = 0.0994 | – | – | – | 22.5
308.02 K, x2 = 0.751 | – | – | – | 7.24
308.02 K, x2 = 0.9 | – | – | – | 2.98
308.03 K, x2 = 0.2615 | – | – | – | 19
308.03 K, x2 = 0.6509 | – | – | – | 9.74
308.15 K, x2 = 0 | 1007.82 | 1785.2 | – | –
308.15 K, x2 = 0.0329 | 1007.7 | 1785.2 | – | –
308.15 K, x2 = 0.0993 | 1007.45 | 1784.4 | – | –
308.15 K, x2 = 0.2615 | 1006.85 | 1783.8 | – | –
308.15 K, x2 = 0.4463 | 1005.97 | 1784.8 | – | –
308.15 K, x2 = 0.6509 | 1004.63 | 1785.9 | – | –
308.15 K, x2 = 0.751 | 1003.96 | 1781.8 | – | –
308.15 K, x2 = 0.9 | 999.99 | 1726.6 | – | –
312.9 K, x2 = 0.2615 | – | – | 50.6 | –
313.2 K, x2 = 0.751 | – | – | 52 | –
313.5 K, x2 = 0.4463 | – | – | 50.4 | –
313.8 K, x2 = 0.0994 | – | – | 51.1 | –
313.8 K, x2 = 0.6509 | – | – | 49.3 | –
313.9 K, x2 = 0.0329 | – | – | 50.3 | –
316.2 K, x2 = 0.9 | – | – | 52.2 | –
318.02 K, x2 = 0.0329 | – | – | – | 17.4
318.03 K, x2 = 0.4463 | – | – | – | 11
318.04 K, x2 = 0.751 | – | – | – | 5.47
318.05 K, x2 = 0.2615 | – | – | – | 14.4
318.05 K, x2 = 0.9 | – | – | – | 2.33
318.06 K, x2 = 0.0994 | – | – | – | 16.9
318.06 K, x2 = 0.6509 | – | – | – | 7.37
318.15 K, x2 = 0 | 1002.33 | 1761 | – | –
318.15 K, x2 = 0.0329 | 1002.21 | 1760.7 | – | –
318.15 K, x2 = 0.0993 | 1001.88 | 1760 | – | –
318.15 K, x2 = 0.2615 | 1001.22 | 1759.7 | – | –
318.15 K, x2 = 0.4463 | 1000.21 | 1761.1 | – | –
318.15 K, x2 = 0.6509 | 998.57 | 1762.5 | – | –
318.15 K, x2 = 0.751 | 997.71 | 1759.7 | – | –
318.15 K, x2 = 0.9 | 993.7 | 1711.2 | – | –
323.9 K, x2 = 0.0994 | – | – | 50.3 | –
324.1 K, x2 = 0.2615 | – | – | 49.6 | –
324.2 K, x2 = 0.751 | – | – | 51.1 | –
324.4 K, x2 = 0.9 | – | – | 51.7 | –
324.5 K, x2 = 0.4463 | – | – | 49.6 | –
324.6 K, x2 = 0.6509 | – | – | 48.9 | –
324.9 K, x2 = 0.0329 | – | – | 49.5 | –
333.04 K, x2 = 0.0329 | – | – | – | 12.1
333.07 K, x2 = 0.4463 | – | – | – | 7.72
333.07 K, x2 = 0.751 | – | – | – | 3.81
333.07 K, x2 = 0.9 | – | – | – | 1.68
333.08 K, x2 = 0.2615 | – | – | – | 10.1
333.09 K, x2 = 0.6509 | – | – | – | 5.14
333.1 K, x2 = 0.0994 | – | – | – | 11.7
333.15 K, x2 = 0 | 994.14 | 1724.7 | – | –
333.15 K, x2 = 0.0329 | 993.99 | 1724.4 | – | –
333.15 K, x2 = 0.0993 | 993.64 | 1723.9 | – | –
333.15 K, x2 = 0.2615 | 992.88 | 1724 | – | –
333.15 K, x2 = 0.4463 | 991.65 | 1725.6 | – | –
333.15 K, x2 = 0.6509 | 989.51 | 1727 | – | –
333.15 K, x2 = 0.751 | 988.31 | 1724.7 | – | –
333.15 K, x2 = 0.9 | 983.98 | 1684.9 | – | –
